Reference: patent US4863900A (priority 1987, dated 1989)

Assays:
[1] = system: influenza, Newcastle disease, tobacco mosaic, poliomyelitis, and mumps viruses; settings: cited from earlier work
[2] = system: HSV1; test: Injection of poly-L-histidine treated HSV1 into mice, observed 14 days; format: in vivo, Balb/C mice; settings: HSV1 incubated with 100 μg His-75 in 1 ml, pH 6.0, one hour at 37° C., 50 μl in lower left jaw
Source text: 3. All animals were observed daily for 14 days.

[3] = system: HSV1; test: Virus inactivation, surviving virus by plaque assay on VERO cells; settings: for inactivation of HSV1, temperature effect: 1 hour
[4] = system: HSV2; test: as above; settings: for Percent Survivors HSV-2: 1 hr at 37° C.
[5] = 100 μg/ml at 37° C., pH 6.0, samples at 1, 15, 30, 45 and 60 minutes
[6] = pH 5, 100 μg/ml, 1 hour at 37° C.
[7] = pH 6, 100 μg/ml, 1 hour at 37° C.
[8] = pH 7, 100 μg/ml, 1 hour at 37° C.
[9] = pH 8, 100 μg/ml, 1 hour at 37° C.

In the case of poly-L-arginine, the “inhibitory activity against viruses” value [1] is given as “inhibitory activity”.
For poly-L-lysine, the “inhibitory activity against viruses” value [1] is given as “inhibitory activity”.
With poly-L-Histidine [His-75] the “health of mice injected with poly-L-histidine treated HSV1” value ([2]; listed as Poly-L-histidine) was “failed to cause disease”, the “health of mice injected with poly-L-histidine treated HSV1” value ([2]; listed as poly-L-histidine) was “remained healthy throughout the study” and the “Percent Survivors HSV-1” value ([3]; 1 μg/ml, pH 6.0, 1 hr at 37° C.) was 83%. For the same substance, the “Percent Survivors HSV-1” value ([3]; 10 μg/ml, pH 6.0, 1 hr at 37° C.) was 64%, the “length of time required for inactivation of HSV1” value [3, 5] was “inactivated by as little as one minute of exposure” and the “Percent Survivors HSV-1” value ([3]; 100 μg/ml, pH 6.0, 30 minutes, 37° C., not shifted) was 0%. For the same substance, the “Percent Survivors HSV-1” value ([3]; 100 μg/ml, pH 6.0, 60 minutes, 37° C., not shifted) was 0%, the “inactivation of HSV1, temperature effect” value ([3]; 4° C., 100 μg/ml, pH 6.0) was “a small amount of HSV1 survived” and the “inactivation of HSV1, temperature effect” value ([3]; 22° C. and 37° C., 100 μg/ml, pH 6.0) was “inactivation was almost complete”. The “ID50 (amount of drug required to inactivate 50% of the virus)” value ([3]; HSV1, pH 6.0, 1 hour at 37° C., linear regression analysis) was 44.38 µg/mL, the “inactivation of HSV1” value [3, 6] was “efficiently inactivated” and the “inactivation of HSV1” value [3, 7] was “efficiently inactivated”. For the same substance, the “inactivation of HSV1” value [3, 8] was “not”, the “inactivation of HSV” value ([3]; pH 7.2) was “does not inactivate” and the “inactivation of HSV1” value [3, 9] was “not”. The “Percent Survivors HSV-2” value ([4]; 1 μg/ml, pH 6.0) was 62%, the “Percent Survivors HSV-2” value ([4]; 10 μg/ml, pH 6.0) was 84% and the “length of time required for inactivation of HSV2” value [4, 5] was “inactivated by as little as one minute of exposure”. The “inactivation of HSV2, temperature effect” value ([4]; 4° C., 22° C. and 37° C., 100 μg/ml, pH 6.0, 1 hour) was “inactivation was almost complete”, the “ID50 (amount of drug required to inactivate 50% of the virus)” value ([4]; HSV2, pH 6.0, 1 hour at 37° C., linear regression analysis) was 41.15 µg/mL and the “inactivation of HSV2” value [4, 6] was “inactivated”. For the same substance, the “inactivation of HSV2” value [4, 7] was “inactivated”, the “inactivation of HSV2” value [4, 8] was “not” and the “inactivation of HSV2” value [4, 9] was “not and Some small amount of inactivation”.
For poly-L-Histidine [His-64], the “inactivation of HSV1” value [3, 6] was “inactivated”, the “inactivation of HSV1” value [3, 7] was “inactivated” and the “inactivation of HSV1” value [3, 8] was “Some minor inactivation”. For the same substance, the “inactivation of HSV1” value [3, 9] was “none”.
